Common to all, as to assay: IC50 (cell viability) (log10 M)
Conditions in all cases: 4 days

Assay [1] deals with EOL-1. In outline: (§1)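 Drugs were dispensed robotically in duplicate onto fourteen leukemia cell lines plated a day earlier on 384-well plates with an extracellular matrix coating, at eight concentrations covering 4–5 logs inside the 10^–12–10^–4 M range, set for each drug. CellTiter-Glo was used to read viability after 4 days. Each IC50 in the table comes from a fitted curve. It is given as the concentration in log10 M where a four-parameter curve crosses 50% viability, or as the highest tested concentration when the curve never reaches that level.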

The test system of assay [2] is KASUMI1. In outline: as §1
The test system of assay [3] is KG1. A digest of the protocol:
as §1

Assay [4] has as its system MOLM/13. A digest of the protocol: as §1
The test system of assay [5] is MV4.11. In outline:
as §1

Assay [6] deals with NB4. A digest of the protocol:
as §1

Assay [7] relates to OCI-AML2. In outline: as §1
Assay [8] has as its system SKM1. A digest of the protocol:
as §1

Assay [9] relates to THP-1. A digest of the protocol: as §1
In assay [10] the test system is U937. A digest of the protocol:
as §1

Where a name gives a salt, the structure may show the parent alone. A value given as a limit tells only on which side of the number the result lay.

Consider `CC1=C(/C=C/C(C)=C/C=C/C(C)=C/C(=O)Nc2ccc(O)cc2)C(C)(C)CCC1` [Fenretinide], for which the “IC50 (log10 M)” value is -5.86 in [1]; -5.47 in [2]; -5.82 in [3]; -5.29 in [4]; -5.75 in assay [5]; -5.62 in assay [6]. The “IC50 (log10 M)” value is -5.5 in assay [7], -5.32 in assay [8], -5.28 in assay [9] and -5.82 in assay [10].
`CCc1cccc2c3c([nH]c12)C(CC)(CC(=O)O)OCC3` (stereo not given) [Etodolac]: the “IC50 (log10 M)” value in assay [1], in [2], in assay [3], in assay [4], in assay [5] and in assay [6] was greater than -5 throughout. The “IC50 (log10 M)” value in assay [7], in assay [8], in assay [9] and in assay [10] was greater than -5 throughout.
Take `Nc1ccn([C@@H]2O[C@H](CO)[C@@H](O)C2(F)F)c(=O)n1` [Gemcitabine HCl]: the “IC50 (log10 M)” value in [1], in [2], in assay [3], in assay [4], in assay [5] and in assay [6] was less than -8.48 in each case. Further, the “IC50 (log10 M)” value in [7], in assay [8], in assay [9] and in assay [10] was less than -8.48 throughout.
With `O=C(O)C1(C(=O)O)CCC1.[NH2-].[NH2-].[Pt+2]` [Carboplatin], the “IC50 (log10 M)” value in assay [1] was -5.16; in assay [2], greater than -5; in [3], greater than -5; in assay [4], greater than -5; in assay [5], -5.34; in assay [6], greater than -5. The “IC50 (log10 M)” value in assay [7] is -5.37; in [8], greater than -5; in assay [9] it was -5.04; in assay [10], greater than -5.
Regarding `S=c1[nH]cnc2nc[nH]c12` [Mercaptopurine], the “IC50 (log10 M)” value was greater than -5 in assay [1]; greater than -5 in assay [2]; greater than -5 in [3]; -5.71 in [4]; greater than -5 in assay [5]; greater than -5 in assay [6]. In addition, the “IC50 (log10 M)” value was -5.74 in [7], greater than -5 in assay [8], greater than -5 in [9] and greater than -5 in assay [10].

Source of the values: the supplement of paper PMC5752671.
